Assay results reported in the NIST ThermoML archive (doi:10.1021/je9002724).
± gives the expanded uncertainty stated by the source.

Experiment: activity coefficient (dimensionless); of the first substance listed, at infinite dilution; xn = mol fraction of the nth substance listed
Details: Liquid, Chromatography, x1 = 0

For `CCCCCCCC` [octane] + C[n+]1ccn(CCO)c1.F[B-](F)(F)F, the activity coefficient (303.15 K) was 498 ± 52, the activity coefficient (313.15 K) was 532 ± 56 and the activity coefficient (323.15 K) was 574 ± 61. For the same compound, the activity coefficient (333.15 K) was 615 ± 65, the activity coefficient (343.15 K) was 659 ± 70 and the activity coefficient (353.15 K) was 709 ± 75. It also gave an activity coefficient (363.15 K) of 760 ± 80.
`CCc1ccccc1` [ethylbenzene] + C[n+]1ccn(CCO)c1.F[B-](F)(F)F showed an activity coefficient (303.15 K) of 42.1 ± 4.4, an activity coefficient (313.15 K) of 40.6 ± 4.3 and an activity coefficient (323.15 K) of 39 ± 4.1. The activity coefficient (333.15 K) was 37.9 ± 4, the activity coefficient (343.15 K) was 36.7 ± 3.9 and the activity coefficient (353.15 K) was 35.9 ± 3.8. The activity coefficient (363.15 K) was 35 ± 3.7.
Compound `C=Cc1ccccc1` [styrene] + C[n+]1ccn(CCO)c1.F[B-](F)(F)F has an activity coefficient (303.15 K) of 15.3 ± 1.6, an activity coefficient (313.15 K) of 15.1 ± 1.6 and an activity coefficient (323.15 K) of 14.8 ± 1.6. The activity coefficient (333.15 K) was 14.6 ± 1.5, the activity coefficient (343.15 K) was 14.4 ± 1.5 and the activity coefficient (353.15 K) was 14.2 ± 1.5. For the same compound, the activity coefficient (363.15 K) was 14 ± 1.5.
Work on `CC1CCCCC1` [methylcyclohexane] + C[n+]1ccn(CCO)c1.F[B-](F)(F)F yielded an activity coefficient (303.15 K) of 328 ± 35, an activity coefficient (313.15 K) of 373 ± 39 and an activity coefficient (323.15 K) of 421 ± 44. The activity coefficient (333.15 K) was 486 ± 51, the activity coefficient (343.15 K) was 546 ± 58 and the activity coefficient (353.15 K) was 611 ± 64. The activity coefficient (363.15 K) was 677 ± 71.
`CCCCCCCCC` [nonane] + C[n+]1ccn(CCO)c1.F[B-](F)(F)F gave an activity coefficient (303.15 K) of 546 ± 58, an activity coefficient (313.15 K) of 564 ± 60 and an activity coefficient (323.15 K) of 582 ± 61. The activity coefficient (333.15 K) was 599 ± 63, the activity coefficient (343.15 K) was 616 ± 65 and the activity coefficient (353.15 K) was 633 ± 67. The activity coefficient (363.15 K) was 651 ± 69.
Compound `CC(C)CC(C)(C)C` [2,2,4-trimethylpentane] + C[n+]1ccn(CCO)c1.F[B-](F)(F)F has an activity coefficient (303.15 K) of 412 ± 44, an activity coefficient (313.15 K) of 523 ± 55 and an activity coefficient (323.15 K) of 731 ± 77. It also gave an activity coefficient (333.15 K) of 962 ± 100, an activity coefficient (343.15 K) of 1300 ± 140 and an activity coefficient (353.15 K) of 1700 ± 180. It also gave an activity coefficient (363.15 K) of 2310 ± 240.
With `CCCCCCC` [heptane] + C[n+]1ccn(CCO)c1.F[B-](F)(F)F the activity coefficient (303.15 K) was 620 ± 65, the activity coefficient (313.15 K) was 850 ± 90 and the activity coefficient (323.15 K) was 1200 ± 130. The activity coefficient (333.15 K) was 1610 ± 170, the activity coefficient (343.15 K) was 2190 ± 230 and the activity coefficient (353.15 K) was 2980 ± 310. For the same compound, the activity coefficient (363.15 K) was 4220 ± 450.
Compound `Cc1cccc(C)c1` [1,3-dimethylbenzene] + C[n+]1ccn(CCO)c1.F[B-](F)(F)F has an activity coefficient (303.15 K) of 37.2 ± 3.9, an activity coefficient (313.15 K) of 36.3 ± 3.8 and an activity coefficient (323.15 K) of 35.5 ± 3.7. For the same compound, the activity coefficient (333.15 K) was 34.7 ± 3.7, the activity coefficient (343.15 K) was 34 ± 3.6 and the activity coefficient (353.15 K) was 33.2 ± 3.5. For the same compound, the activity coefficient (363.15 K) was 32.5 ± 3.4.
`C1=CCCCC1` [cyclohexene] + C[n+]1ccn(CCO)c1.F[B-](F)(F)F gave an activity coefficient (303.15 K) of 123 ± 13, an activity coefficient (313.15 K) of 118 ± 12 and an activity coefficient (323.15 K) of 114 ± 12. The activity coefficient (333.15 K) was 110 ± 12, the activity coefficient (343.15 K) was 106 ± 11 and the activity coefficient (353.15 K) was 103 ± 11. For the same compound, the activity coefficient (363.15 K) was 100 ± 11.
With `Cc1ccc(C)cc1` [1,4-dimethylbenzene] + C[n+]1ccn(CCO)c1.F[B-](F)(F)F the activity coefficient (303.15 K) was 35.4 ± 3.7, the activity coefficient (313.15 K) was 34.7 ± 3.6 and the activity coefficient (323.15 K) was 33.9 ± 3.6. For the same compound, the activity coefficient (333.15 K) was 33.2 ± 3.5, the activity coefficient (343.15 K) was 32.5 ± 3.4 and the activity coefficient (353.15 K) was 32 ± 3.4. It also gave an activity coefficient (363.15 K) of 31.4 ± 3.3.
Work on `c1ccccc1` [benzene] + C[n+]1ccn(CCO)c1.F[B-](F)(F)F yielded an activity coefficient (303.15 K) of 9.13 ± 0.96, an activity coefficient (313.15 K) of 9.11 ± 0.96 and an activity coefficient (323.15 K) of 9.1 ± 0.96. The activity coefficient (333.15 K) was 9.08 ± 0.95, the activity coefficient (343.15 K) was 9.06 ± 0.95 and the activity coefficient (353.15 K) was 9.05 ± 0.95. For the same compound, the activity coefficient (363.15 K) was 9.04 ± 0.95.
With `C1CCCCC1` [cyclohexane] + C[n+]1ccn(CCO)c1.F[B-](F)(F)F the activity coefficient (303.15 K) was 339 ± 36, the activity coefficient (313.15 K) was 418 ± 44 and the activity coefficient (323.15 K) was 488 ± 52. It also gave an activity coefficient (333.15 K) of 593 ± 63, an activity coefficient (343.15 K) of 689 ± 73 and an activity coefficient (353.15 K) of 803 ± 85. The activity coefficient (363.15 K) was 934 ± 99.
`Cc1ccccc1C` [1,2-dimethylbenzene] + C[n+]1ccn(CCO)c1.F[B-](F)(F)F gave an activity coefficient (303.15 K) of 28.9 ± 3, an activity coefficient (313.15 K) of 28.2 ± 3 and an activity coefficient (323.15 K) of 27.7 ± 2.9. For the same compound, the activity coefficient (333.15 K) was 27 ± 2.8, the activity coefficient (343.15 K) was 26.5 ± 2.8 and the activity coefficient (353.15 K) was 25.9 ± 2.7. For the same compound, the activity coefficient (363.15 K) was 25.4 ± 2.7.
`Cc1ccccc1` [toluene] + C[n+]1ccn(CCO)c1.F[B-](F)(F)F gave an activity coefficient (303.15 K) of 18.3 ± 1.9, an activity coefficient (313.15 K) of 18 ± 1.9 and an activity coefficient (323.15 K) of 17.7 ± 1.9. It also gave an activity coefficient (333.15 K) of 17.5 ± 1.8, an activity coefficient (343.15 K) of 17.3 ± 1.8 and an activity coefficient (353.15 K) of 17.2 ± 1.8. It also gave an activity coefficient (363.15 K) of 16.9 ± 1.8.
